System: umbilical cord blood-derived CD34+ cells
Assay: In vitro colony-forming unit (CFU) assay
Format: cell-based, human
Settings: FIG. 6, clones counted 14 days after seeding
Description: In this example, the colony-forming unit (CFU) was used to detect the in vitro function of cord blood-derived hematopoietic stem cells induced by a small molecule inhibitor for qualitative and quantitative detection to verify their in vitro differentiation potential.
First, 100 mL of medium MethoCult™ H4034 Optimum (Stem Cell, Cat. No.: 04034) were aliquoted, then thawing at 2-8° C. overnight; shaking vigorously for 1-2 minutes and letting it stand for 10 minutes until the bubbles rised to the liquid level. After tightly fitting the 50 mL syringe needle to the 5 mL disposable syringe, the medium is aspirated to 1 mL, pushing out the syringe completely to exhaust the gas in the syringe, and re-absorbing 3 mL into each 15 mL centrifuge tube (Corning, Cat. No. 430791); storing at 2-8° C. for 1 month, and at −20° C. for long-term storage.
3 mL of medium Meth® Cult′ H4034 Optimum was prepared and thawed overnight at room temperature (15-25° C.) or 2-8° C. […]
Colonies were observed on the 7th and 14th days of culture, and colonies were counted with a STEMgrid™-6 counting grid (stem cell, Cat. number: 27000) after 14 days of culture. […]

## COc1cc2ncc(-c3ccccc3)nc2cc1OC [AG1296]
1 μM, 8 days treatment
  number of GEMM clones (CFU-GEMM): significantly better than the other groups
Different concentrations of AG1296, 8 days treatment
  total number of clones: little difference between the groups

Source: patent US20240058387A1, “CULTURE MEDIUM COMPOSITION FOR AMPLIFYING AND MAINTAINING SELF-RENEWAL CAPACITY AND DIFFERENTIATION POTENTIAL OF HSCS AND APPLICATION THEREOF” (EDIGENE (GUANGZHOU) INC., priority 2020, published 2024)
